Values quoted from earlier work as cited in patent US12484617B2, “Oral pouch product” (Altria Client Services LLC, priority 2022, dated 2025).

Conditions: free base (non-protonated)

CN1CCCC1c1cccnc1 (stereo not shown) [Free-base nicotine, 3-(1-methyl-2-pyrrolidinyl)pyridine]
pKa value: about 8
